Data published in US20030017618A1, “Chemical sensor and method of detecting chemical” (priority 2000, published 2003).

Biological target: T1, OBP 6C (Bos taurus, UniProt P07435)
T1 construct: successively elongated for finally synthesizing the whole length of the OBP gene; made in house; host or cells: E. coli BL21 (pET 28a(+), pETOBP-His)
T1 sequence (P07435 1-159): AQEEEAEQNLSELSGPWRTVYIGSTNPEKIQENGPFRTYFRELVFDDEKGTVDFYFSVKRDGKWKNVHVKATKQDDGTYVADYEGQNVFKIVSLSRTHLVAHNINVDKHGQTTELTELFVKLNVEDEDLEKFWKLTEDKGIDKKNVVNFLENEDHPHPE
Experiment: quantity of immobilization of OBP 6C to NTA sensor chip (surface plasmon resonance, BiacoreX) in presence of odorant
Type: binding, bovine
Conditions: Inventive Example 1, FIG. 12; odorant final concentration 10^−8 M; OBP solution 200 nM; 25° C.; comparison between odorants
Protocol: In preparation of the OBP 6C solution employed in the present Inventive Example, the OBP 6C prepared in the aforementioned manner was dissolved in an EB (eluent buffer) and diluted so that the concentration of the solution reached 200 nM.
In preparation of the odorant solutions employed in the present Inventive Example, on the other hand, the six types of odorants, i.e., cineol, linalyl acetate, pinene, geraniol, citronellal and oxidized citronellal were dissolved in ethanol solutions (EtOH) respectively, for preparing odorant solutions of 10^−5 M in concentration as to the respective odorants.
100 μl of the OBP solution having the concentration of 200 nM prepared in the aforementioned manner and 0.1 μl of each odorant solution having the concentration of 10^−5 M were mixed with each other, for preparing six types of sample solutions employed for measurement. In this case, the final concentration of the odorant in each sample solution is […].
An ethanol solution of the OBP 6C (final concentration of EtOH: 0.1%) containing no odorant was also prepared as a comparative sample (blank).
Each sample solution prepared in the aforementioned manner was left to stand at 25° C. for one hour.
Then, an NTA sensor chip (by Biacore) was set in BiacoreX (by Biacore) and thereafter the temperature was set to 25° C. for performing priming with an elution buffer shown in Table 4 described later. Thereafter stabilization of the base was confirmed and the elution buffer was continuously fed at a flow velocity of 20 μl/min. until the temperature reached the set value.
Further, a reproduced solution (30 μl) shown in Table 4 described later was added at a flow velocity of 10 μl/min. and excessive bivalent cation was removed. Then, an Ni solution (30 μl) shown in Table 4 described later was added at a flow velocity of 10 μl/min. for chelating Ni to NTA and immobilizing Ni.
Then, one of the sample solutions (10 μl) prepared in the above was added at a flow velocity of 1 μl/min. for 10 minutes, for immobilizing the OBP 6C onto the sensor chip. After completion of immobilization, the quantity of immobilization of the OBP 6C was measured. Thereafter the reproduced solution shown in Table 4 was employed for washing and removing the OBP 6C immobilized onto the sensor chip.
Operations similar to the above were performed also as to the other sample solutions, for measuring the quantities of immobilization of the OBP 6C as to all of the six types of sample solutions and the comparative (blank) sample solution.
In this case, the quantity of immobilization of the comparative sample (blank) containing no odorant was regarded as 100% for calculating relative values of the quantities of immobilization of the OBP 6C in the respective samples with reference thereto.
In the present Inventive Example, an OBP 6C solution was first prepared along with preparation of DMO solutions. In this case, the OBP 6C solution was prepared by a method similar to the preparation method in Inventive Example 1. In preparation of the DMO solutions, DMO was dissolved in ethanol (EtOH), for preparing solutions of 10^−3, 10^−4, 10^−5 and 10^−6 M in concentration respectively.
100 μl of the OBP 6C solution having the concentration of […] and 0.5 μl of each of the DMO solutions of 10^−3, 10^−4, 10^−5 and 10^−6 M, thereby preparing sample solutions having DMO final concentration values of 5×10^−6, 5×10^−7, 5×10^−8 and 5×10^−9 M respectively. Also in this case, an ethanol solution (final concentration of EtOH: 0.1%) of the OBP 6C containing no DMO was prepared as a comparative sample, similarly to the case of Inventive Example 1.
The respective sample solutions prepared in the aforementioned manner were left to stand at 25° C. for one hour.
After preparing the sample solutions in the aforementioned manner, the quantities of immobilization of the OBP 6C were measured as to the respective sample solutions by a method similar to that in Inventive Example 1.
In the case of `CC(C)=CCCC(C)CC=O` (centres unmarked) [citronellal], the “affinity for the OBP 6C” value is reported as “higher affinity for the OBP 6C as compared with geraniol”. For oxidized citronellal, the “affinity for the OBP 6C” value was “reduced in oxidized citronellal as compared with non-oxidized citronellal”.

Same assay, conditions: Inventive Example 1, FIG. 12; odorant final concentration 10^−8 M; blank regarded as 100%; comparison between odorants
For `CC(C)=CCCC(C)CC=O` (centres unmarked) [citronellal], the “quantity of immobilization of the OBP 6C” value was “reduced in citronellal as compared with geraniol”. In the case of oxidized citronellal, the “quantity of immobilization of the OBP 6C” value is reported as “increased in oxidized citronellal as compared with the non-oxidized case”.

Same assay, conditions: Inventive Example 2, FIG. 13
For `CC(C)CCCC(C)CCO` (centres unmarked), the “DMO concentration that can be determined from the quantity of immobilization of the OBP 6C (quantitative limit)” value was “at least 10^−8 M”.

Same assay, conditions: Inventive Example 2, FIG. 13; DMO 5×10^−6 to 5×10^−9 M
With `CC(C)CCCC(C)CCO` (centres unmarked) the “DMO concentration range with constant correlation between concentration and quantity of immobilization of the OBP 6C” value was “at least 5×10^−8 M”.

Same assay, conditions: Inventive Example 2, FIG. 13; DMO concentration smaller than 10^−8 M; versus absence of the odorant
In the case of `CC(C)CCCC(C)CCO` (centres unmarked), the “quantity of immobilization of the OBP 6C” value is reported as “equalized with the quantity of immobilization”.

Biological target: T2, bovine derivation odorant binding protein (OBP) (Bos taurus, UniProt P07435)
T2 sequence (P07435 1-159): T1 sequence (P07435 1-159)
Experiment: not given
Conditions: grade in words (high / moderate affinity); cited from earlier work
For `CC(C)CCCC(C)CCO` (centres unmarked), the “affinity for the OBP” value is given as “high affinity”. For `CCCCC/C(C=O)=C/c1ccccc1` [amyl cinnamic aldehyde], the “affinity for the OBP” value is listed as “high affinity”. In the case of `CC/C(=C\CC1CC=C(C)C1(C)C)CO` (centres unmarked) [bacdanol], the “affinity for the OBP” value is given as “moderate affinity”. For `O=C(c1ccccc1)c1ccccc1` [benzophenone], the “affinity for the OBP” value is listed as “high affinity”. In the case of `O=C(OCc1ccccc1)c1ccccc1` [benzyl benzoate], the “affinity for the OBP” value is listed as “high affinity”. In the case of `CC(C)CC(=O)OCc1ccccc1` [benzyl isovalerate], the “affinity for the OBP” value is listed as “high affinity”. For `CC(C)CC(=O)OC1CC2CCC1(C)C2(C)C` (centres unmarked) [bornyl isovalerate], the “affinity for the OBP” value is listed as “moderate affinity”. In the case of `CC1C(C)(C)C2=C(C(=O)CCC2)C1(C)C` (centres unmarked) [cashmeran], the “affinity for the OBP” value is listed as “moderate affinity”. In the case of `CC/C=C\CC1=C(C)CCC1=O` [cisjasmone], the “affinity for the OBP” value is listed as “moderate affinity”. In the case of `COC(C=C(C)CCC=C(C)C)OC` [citral dimethyl acetal], the “affinity for the OBP” value is listed as “moderate affinity”. For `CC(C)=CCCC(C)=CC#N` [citralva], the “affinity for the OBP” value is listed as “high affinity”. For `CC(C)=CCCC(C)CC=O` (centres unmarked) [citronellal], the “affinity for the OBP” value is listed as “moderate affinity”. In the case of `CC(C)=CCCC(C)CCO` (centres unmarked) [citronellol], the “affinity for the OBP” value is listed as “high affinity”. For `CC(=O)OCCC(C)CCC=C(C)C` (centres unmarked) [citronellyl acetate], the “affinity for the OBP” value is listed as “moderate affinity”. In the case of `CC(C)C/C=C(/C=O)c1ccccc1` [cocal], the “affinity for the OBP” value is listed as “moderate affinity”. For `CCCCCCCCCC=O` [decanal], the “affinity for the OBP” value is given as “moderate affinity”. In the case of `CCOC(=O)c1ccccc1C(=O)OCC` [diethylphthalate], the “affinity for the OBP” value is listed as “moderate affinity”. In the case of `C=CC(C)CCCC(C)(C)O` (centres unmarked) [dihydromyrcenol], the “affinity for the OBP” value is given as “high affinity”. For `CC(C)CCCC(C)(C)O` [dimethol], the “affinity for the OBP” value is given as “moderate affinity”. In the case of `CCCCC[C@H]1C(=O)CC[C@H]1CC(=O)OC` [epimethyl dihydrojasmonate], the “affinity for the OBP” value is given as “moderate affinity”. In the case of `C=CCc1ccc(O)c(OC)c1` [eugenol], the “affinity for the OBP” value is given as “moderate affinity”. For `CC1COCc2cc3c(cc21)C(C)(C)C(C)C3(C)C` (centres unmarked) [galaxolide], the “affinity for the OBP” value is given as “moderate affinity”. For `CC(C)=CCC/C(C)=C/CO` [geraniol], the “affinity for the OBP” value is listed as “moderate affinity”. In the case of `CC(C)=CCC/C(C)=C/CCC=O` [geranyl acetaldehyde], the “affinity for the OBP” value is given as “moderate affinity”. For `CC(=O)OC/C=C(\C)CCC=C(C)C` [geranyl acetate], the “affinity for the OBP” value is given as “moderate affinity”. In the case of `CCCCCCC=O` [heptanal], the “affinity for the OBP” value is listed as “moderate affinity”. In the case of `CCCCCCC(C=O)=Cc1ccccc1` [hexyl cinnamic aldehyde], the “affinity for the OBP” value is listed as “high affinity”. For `CCCCCCOC(=O)C(C)CC` (centres unmarked) [hexyl methylbutyrate], the “affinity for the OBP” value is given as “moderate affinity”. For `CCCCCC1COCCC1OC(C)=O` (centres unmarked) [jasmal], the “affinity for the OBP” value is given as “moderate affinity”. For `C=CC(C)(O)CCC=C(C)C` (centres unmarked) [linalool], the “affinity for the OBP” value is listed as “moderate affinity”. In the case of `CC(C)[C@@H]1CC[C@@H](C)CC1=O` [menthone], the “affinity for the OBP” value is listed as “moderate affinity”. In the case of `CCCCCC1C(=O)CCC1CC(=O)OC` (centres unmarked) [methyl dihydrojasmonate], the “affinity for the OBP” value is listed as “moderate affinity”. In the case of `CC(C)=CCCC1=CCC(C=O)CC1` (centres unmarked) [myrmac aldehyde], the “affinity for the OBP” value is listed as “moderate affinity”. For `C/C=C(C)\C=C\C=C(C)C` [neo-alloocimen], the “affinity for the OBP” value is listed as “moderate affinity”. For `CC(C)=CCC/C(C)=C\CO` [nerol], the “affinity for the OBP” value is listed as “moderate affinity”. For `CCCCCCCCC=O` [nonanal], the “affinity for the OBP” value is listed as “moderate affinity”. In the case of `CCCCCCCCOC(=O)C(C)C` [octyl isobutyrate], the “affinity for the OBP” value is listed as “moderate affinity”. For `CCCCCCCCOC(=O)CC(C)C` [octyl isovalerate], the “affinity for the OBP” value is given as “moderate affinity”. In the case of `OCCc1ccccc1` [phenetyl alcohol], the “affinity for the OBP” value is given as “moderate affinity”. For `CC1(C)C2CC=C(CCC=O)C1C2` (centres unmarked) [pinoacetaldehyde], the “affinity for the OBP” value is given as “moderate affinity”. In the case of `CC1=C(/C=C/C(C)=C/C=C/C(C)=C/C=O)C(C)(C)CCC1` [retinal], the “affinity for the OBP” value is given as “moderate affinity”. In the case of `CC1=C(/C=C/C(C)=C/C=C/C(C)=C/CO)C(C)(C)CCC1` [retinol], the “affinity for the OBP” value is given as “moderate affinity”. For `Cc1c[nH]c2ccccc12` [skatole], the “affinity for the OBP” value is given as “high affinity”. In the case of `CCCCCCCCCCCCCC=O` [tetradecanal], the “affinity for the OBP” value is listed as “high affinity”. In the case of `CCCCCCCCCCC=O` [undecanal], the “affinity for the OBP” value is given as “high affinity”. For `CC(=O)OC1CCC(C(C)(C)C)CC1` (centres unmarked) [vertenex], the “affinity for the OBP” value is given as “moderate affinity”. In the case of agrumea, the “affinity for the OBP” value is given as “moderate affinity”. In the case of ambrettolide, the “affinity for the OBP” value is given as “moderate affinity”. In the case of carbon, the “affinity for the OBP” value is listed as “moderate affinity”. For coniferane, the “affinity for the OBP” value is listed as “moderate affinity”. In the case of dimethyl octane, the “affinity for the OBP” value is given as “moderate affinity”. In the case of dimethyl octhene, the “affinity for the OBP” value is given as “moderate affinity”. In the case of heptenal, the “affinity for the OBP” value is listed as “moderate affinity”. In the case of hexyl pyridine, the “affinity for the OBP” value is given as “high affinity”. For ionone, the “affinity for the OBP” value is given as “moderate affinity”. For jessemal, the “affinity for the OBP” value is listed as “moderate affinity”. For musk 89, the “affinity for the OBP” value is listed as “high affinity”. For pinylisobutyl aldehyde, the “affinity for the OBP” value is listed as “moderate affinity”.
